Data reported in patent US20100104621A1, “TREATING ADHD AND OTHER DISEASES INVOLVING INFLAMMATION” (CONNECTED HEALTH SYSTEMS, LLC, priority 2007, published 2010).

Tests used:
VEGF = settings: animal studies; cited from earlier work
ovarian cancer = settings: in 10 days, animal studies; cited from earlier work
[1] = test system: patient with OCD and ADHD, and their child; assay: Example 4: family with history of ADHD, OCD and cancer; type: in vivo, human
From the text: The 5HT2A receptor has been associated with OCD, Seasonal Affective Disorder, Alcoholism, and a predisposition toward Schizophrenia. The gene for this receptor is found on chromosome 13. A patient presents with OCD and ADHD. Two of their children also are diagnosed with OCD and ADHD. […] They test positive for BRCA2 which is also found on chromosome 13 in the same region as the gene for the 5HT2A receptor.
Lowered catecholamines lead to slightly elevated prolactin and can alter GnRH. Elevated GnRH leads to spikes in estrogen and progesterone and may eventually lead to premature ovarian failure along with alterations in inflammation and co-factors. Elevated interleukins lead to increased free radical production and damage to DNA. Lowered dopamine would allow for angiogenesis. Elevated interleukins could induce CREB and increase the expression of ICAM and VCAM. BRCA2 lowers p53, p21 (tumor suppressor genes) as well as RAD51, which repairs damage to DNA. Catecholamines may interact with genes involved in cancer via common second messenger systems. Laboratory tests reveal that the patient has a high vitamin B6 level of 100, and an abnormal amino acid profile.
Treatment of the patient includes administering an extended release CNS stimulant at an appropriate dosage to achieve the desired therapeutic effect, substantially around the clock. […]

[2] = test system: obese person diagnosed with ADHD; assay: Example 5: treatment of obese person with ADHD; type: in vivo, human; settings: with Adderall XR; amino acid supplements for 4 months then stopped
From the text: An obese person presents complaining of depression. They are on Lipitor for high cholesterol and has a heart rate of 116 and a blood pressure of 166/112. They also have “heart burn”. They are diagnosed with ADHD and titrated up to 15 mgs of Adderall XR three times a day. Their heart rate decreases to 100 at the first visit four weeks later and after 8 weeks it is 88. Based on lab reports, their vitamin B6 level is elevated at 56 and they are deficient in arginine, ornithine, histidine, threonine, and taurine along with other amino acids. They also have an elevated IL-6 level. Their vitamin D3 level is also very low. They are started on P-5-P and is supplemented with the aforementioned amino acids to help replenish their body. Their taurine level is 18 and normal is at 54. They are a candidate for developing a cardiac arrhythmia.
[…] Their blood pressure and heart rate continue to decline and they begin to lose weight despite having a normal appetite. […] Their depression is gone and they are dreaming about becoming a lawyer. They remain on Adderall XR, however their dose is decreased to 10 mgs three times a day. They remain on P-5-P. The patient's amino acid profile is normal and their CRP is normal. CRP is an indirect measure of IL-6 and is impacted by low levels of P-5-P.

[3] = test system: person with stage 4 ovarian cancer; assay: Example 6: person with stage 4 ovarian cancer; type: in vivo, human; settings: with Adderall XR
From the text: A person presents with stage 4 ovarian cancer, skin picking, irritable bowel syndrome, PMS, allergies, and a tonsillectomy. They are BRCA1 positive and lost their parent due to breast cancer. Other family members have succumbed to breast cancer, pancreatic cancer, and colon cancer. They are screened for ADHD and is started on Adderall XR and titrated up to 15 mgs three times a day. They are tapered off Prozac for depression. Six weeks later they state that their depression is gone and their energy level is back to normal and their strength is retuning. Their nausea is also gone. […] When they ran out of vitamin B6, their skin picking returns in one week, but stops the day they resume taking vitamin B6.
Catecholamines may interact with genes involved in cancer in certain tissues. BRCA1 knocks p21, p53, and RAD51 out. Genes can be turned on and off based on signaling. Their amino acid profile fits with a defect in pyridoxine-5′-phosphate oxidase which is located on […]. This is beside BRCA1 on chromosome 17. It is possible the patient has a defect in SLC6A4 not ADHD 2 on 17p11.2. 17p11.2 is the site of serine hydroxymethyltransferase. Additionally, it is possible that second messengers that are inactivated by BRCA-1 are responsible for lowering their catecholamines. […]

[4] = test system: pyramidal neurons in the medial prefrontal cortex; settings: after 12 days of continuous administration; cited from earlier work

Q: With NCCc1ccc(O)c(O)c1 [Dopamine] as the molecule, how does the “effect on VEGF” value (VEGF) read?
A: inhibit

Q: And the “shrinkage of ovarian cancer” value (ovarian cancer)?
A: 80%

Q: Which amino acid profile ([1]; child, with around the clock stimulant, fish oil and antioxidants) does the source give for Cc1ncc(COP(=O)(O)O)c(C=O)c1O [P-5-P, pyridoxal 5′-phosphate] here?
A: returns to normal

Q: What about the amino acid profile ([1]; parent, 100 mgs, with extended release CNS stimulant) of the same molecule?
A: corrects

Q: And the CRP [2]?
A: normal

Q: And the amino acid profile [2]?
A: normal

Q: What about the skin picking [3] of the same molecule?
A: stops that same day

Q: Which “dendritic length and branches of pyramidal neurons in the medial prefrontal cortex” value [4] does the source give for CC(N)Cc1ccccc1 (centres unmarked) [amphetamine] here?
A: increase in dendritic length and branches
